According to patent US9604961B2, “Histone demethylase inhibitors” (Celgene Quanticel Research, Inc., priority 2012, dated 2017):

Experiments:
Assay type in all cases: biochemical
[1] = target: Jarid1A (Homo sapiens (Human), UniProt P29375); assay: Jarid1A in vitro enzyme inhibition assay (TR-FRET)
Description: The enzymatic assay of Jarid1A activity is based upon Time Resolved-Fluorescence Resonance Energy Transfer (TR-FRET) detection.

[2] = target: Jarid1B (Homo sapiens (Human), UniProt Q9UGL1); assay: Jarid1B in vitro enzyme inhibition assay (TR-FRET)
Description: This assay determines the ability of a test compound to inhibit Jarid1A, Jarid1B, JMJD2C, and JMJD2A demethylase activity.
The ability of test compounds to inhibit the activity of Jarid1B was determined in 384-well plate format under the following reaction conditions: 0.8 nM Jarid1B, 300 nM H3K4me3-biotin labeled peptide (Anaspec cat #64357), 2 μM alpha-ketoglutaric acid in assay buffer of 50 mM HEPES, pH7.3, 0.005% Brij35, 0.5 mM TCEP, 0.2 mg/ml BSA, 50 μM sodium L-ascorbate, and 2 μM ammonium iron(II) sulfate. Reaction product was determined quantitatively by TR-FRET after the addition of detection reagent Phycolink Streptavidin-allophycocyanin (Prozyme) and Europium-anti-mono- or di-methylated histone H3 lysine 4 (H3K4me1-2) antibody (PerkinElmer) in the presence of 5 mM EDTA in LANCE detection buffer (PerkinElmer) at a final concentration of 25 nM and 1 nM, respectively.
The assay reaction was initiated by the following: 2 μl of the mixture of 900 nM H3K4me3-biotin labeled peptide and 6 μM alpha-ketoglutaric acid with 2 μl of 11-point serial diluted inhibitor in 3% DMSO was added to each well of the plate, followed by the addition of 2 μl of 2.4 nM Jarid1B to initiate the reaction. The reaction mixture was incubated at room temperature for 30 minutes, and terminated by the addition of 6 μl of 5 mM EDTA in LANCE detection buffer containing 50 nM Phycolink Streptavidin-allophycocyanin and 2 nM Europium-anti-H3K4me1-2 antibody. Plates were read by EnVisionMultilabel Reader in TR-FRET mode (excitation at 320 nm, emission at 615 nm and 665 nm) after 1 hour incubation at room temperature. A ratio was calculated (665/615) for each well and fitted to determine inhibition constant (IC50).

[3] = target: JMJD2C (Homo sapiens (Human), UniProt Q9H3R0); assay: JMJD2C in vitro enzyme inhibition assay (TR-FRET)
Sequence of JMJD2C (Q9H3R0 2-372): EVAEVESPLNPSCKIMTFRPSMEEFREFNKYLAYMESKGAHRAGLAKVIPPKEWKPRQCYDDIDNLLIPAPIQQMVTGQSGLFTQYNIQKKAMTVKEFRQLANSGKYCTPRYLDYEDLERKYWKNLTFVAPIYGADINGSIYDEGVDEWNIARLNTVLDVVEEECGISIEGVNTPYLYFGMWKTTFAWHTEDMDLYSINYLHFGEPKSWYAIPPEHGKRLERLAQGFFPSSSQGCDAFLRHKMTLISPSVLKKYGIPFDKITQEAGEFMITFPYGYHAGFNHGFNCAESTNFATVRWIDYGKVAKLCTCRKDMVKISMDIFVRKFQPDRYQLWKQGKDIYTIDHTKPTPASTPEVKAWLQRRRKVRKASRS
Description: Baculovirus expressed JMJD2C (GenBank Accession #BC143571, AA 2-372) was purchased from BPS Bioscience (Cat#50105).
The ability of test compounds to inhibit the activity of JMJD2C was determined in 384-well plate format under the following reaction conditions: 0.3 nM JMJD2C, 300 nM H3K9me3-biotin labeled peptide (Anaspec cat #64360), 2 μM alpha-ketoglutaric acid in assay buffer of 50 mM HEPES, pH7.3, 0.005% Brij35, 0.5 mM TCEP, 0.2 mg/ml BSA, 50 μM sodium L-ascorbate, and 2 μM ammonium iron(II) sulfate. Reaction product was determined quantitatively by TR-FRET after the addition of detection reagent Phycolink Streptavidin-allophycocyanin (Prozyme) and Europium-anti-di-methylated histone H3 lysine 9 (H3K9me2) antibody (PerkinElmer) in the presence of 5 mM EDTA in LANCE detection buffer (PerkinElmer) at a final concentration of 50 nM and 1 nM, respectively.
The assay reaction was initiated by the following: 2 μl of the mixture of 900 nM H3K9me3-biotin labeled peptide and 6 μM alpha-ketoglutaric acid with 2 μl of 11-point serial diluted inhibitor in 3% DMSO were added to each well of the plate, followed by the addition of 2 μl of 0.9 nM JMJD2C to initiate the reaction. The reaction mixture was incubated at room temperature for 30 minutes, and terminated by the addition of 6 μl of 5 mM EDTA in LANCE detection buffer containing 100 nM Phycolink Streptavidin-allophycocyanin and 2 nM Europium-anti-H3K9me2 antibody. Plates were read by EnVisionMultilabel Reader in TR-FRET mode (excitation at 320 nm, emission at 615 nm and 665 nm) after 1 hour incubation at room temperature. A ratio was calculated (665/615) for each well and fitted to determine inhibition constant (IC50).

Sequence of Jarid1A (P29375 1-1090): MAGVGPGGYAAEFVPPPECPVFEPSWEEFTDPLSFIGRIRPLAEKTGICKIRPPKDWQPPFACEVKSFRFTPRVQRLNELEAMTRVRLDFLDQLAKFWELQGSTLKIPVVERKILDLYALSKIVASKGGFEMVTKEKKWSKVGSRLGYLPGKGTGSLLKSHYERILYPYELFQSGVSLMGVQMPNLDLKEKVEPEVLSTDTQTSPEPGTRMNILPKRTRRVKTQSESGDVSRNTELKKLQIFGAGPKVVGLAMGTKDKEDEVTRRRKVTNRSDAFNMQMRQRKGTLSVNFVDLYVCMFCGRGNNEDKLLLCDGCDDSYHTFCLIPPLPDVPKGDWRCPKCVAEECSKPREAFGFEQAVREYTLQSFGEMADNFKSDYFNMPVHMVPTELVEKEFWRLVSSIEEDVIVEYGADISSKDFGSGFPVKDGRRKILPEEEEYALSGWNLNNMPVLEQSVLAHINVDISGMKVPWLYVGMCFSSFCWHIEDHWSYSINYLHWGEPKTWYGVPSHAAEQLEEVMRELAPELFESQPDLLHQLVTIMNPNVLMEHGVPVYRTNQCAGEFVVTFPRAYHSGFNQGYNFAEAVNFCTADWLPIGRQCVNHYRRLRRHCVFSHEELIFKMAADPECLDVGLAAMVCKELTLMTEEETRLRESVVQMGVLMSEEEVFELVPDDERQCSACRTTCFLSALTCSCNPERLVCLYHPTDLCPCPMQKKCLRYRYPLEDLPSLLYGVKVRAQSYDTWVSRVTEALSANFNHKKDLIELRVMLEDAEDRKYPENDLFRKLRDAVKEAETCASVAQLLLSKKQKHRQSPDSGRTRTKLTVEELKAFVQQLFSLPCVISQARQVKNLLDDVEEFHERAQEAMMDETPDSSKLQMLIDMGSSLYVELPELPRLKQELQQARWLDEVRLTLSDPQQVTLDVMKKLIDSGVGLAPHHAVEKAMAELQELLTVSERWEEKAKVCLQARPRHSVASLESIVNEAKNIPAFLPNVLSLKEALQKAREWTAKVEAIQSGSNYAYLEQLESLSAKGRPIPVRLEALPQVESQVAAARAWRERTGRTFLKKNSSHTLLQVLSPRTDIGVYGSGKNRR
Sequence of Jarid1B (Q9UGL1 2-751): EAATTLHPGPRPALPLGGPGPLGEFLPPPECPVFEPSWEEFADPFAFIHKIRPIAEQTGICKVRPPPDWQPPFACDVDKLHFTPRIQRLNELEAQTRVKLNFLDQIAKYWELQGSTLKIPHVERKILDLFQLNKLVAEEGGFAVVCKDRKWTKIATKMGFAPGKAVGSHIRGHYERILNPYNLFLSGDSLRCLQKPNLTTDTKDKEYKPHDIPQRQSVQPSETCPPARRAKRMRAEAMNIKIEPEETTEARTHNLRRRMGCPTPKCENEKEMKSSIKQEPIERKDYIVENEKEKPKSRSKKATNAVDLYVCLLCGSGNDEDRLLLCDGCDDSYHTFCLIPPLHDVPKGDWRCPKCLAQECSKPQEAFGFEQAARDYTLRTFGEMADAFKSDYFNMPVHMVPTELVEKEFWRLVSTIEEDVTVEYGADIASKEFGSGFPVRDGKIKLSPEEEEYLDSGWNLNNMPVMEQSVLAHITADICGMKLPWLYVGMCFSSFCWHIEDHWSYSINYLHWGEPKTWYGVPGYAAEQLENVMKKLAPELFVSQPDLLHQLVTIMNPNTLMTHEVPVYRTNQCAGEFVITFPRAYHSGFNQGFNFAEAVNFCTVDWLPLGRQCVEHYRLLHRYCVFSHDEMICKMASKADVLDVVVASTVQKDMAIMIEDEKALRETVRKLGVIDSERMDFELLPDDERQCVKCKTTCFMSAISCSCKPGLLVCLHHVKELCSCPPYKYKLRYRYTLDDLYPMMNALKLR

Compound	IC50 [1]	IC50 [2]	IC50 [3]
O=C(O)c1ccnc(-n2nccc2OCc2ccc(C(F)(F)F)cc2)c1 [Example 54, 2-(5-{[4-(trifluoromethyl)benzyl]oxy}-1H-pyrazol-1-yl)pyridine-4-carboxylic acid]	< 100 nM	< 100 nM	100 to 1000 nM
CC(C)Oc1cc(Cl)ccc1COc1ccnn1-c1cc(C(=O)O)ccn1 [Example 113, 2-[5-[(4-chloro-2-propan-2-yloxyphenyl)methoxy]pyrazol-1-yl]pyridine-4-carboxylic acid]	100 to 1000 nM	100 to 1000 nM	1000 to 10000 nM
O=C(O)c1ccnc(-n2nccc2-c2cccc(F)c2)c1 [Example 16, 2-(5-(3-fluorophenyl)-1H-pyrazol-1-yl)isonicotinic acid]	100 to 1000 nM	100 to 1000 nM	100 to 1000 nM
CCc1ccc(COc2ccnn2-c2cc(C(=O)O)ccn2)cc1Cl [Example 95, 2-[5-[(3-chloro-4-ethylphenyl)methoxy]pyrazol-1-yl]pyridine-4-carboxylic acid]	< 100 nM	< 100 nM	100 to 1000 nM
O=C(O)c1ccnc(-n2nccc2-c2ccc(Cl)c(O)c2)c1 [Example 23, 2-(5-(4-chloro-3-hydroxyphenyl)-1H-pyrazol-1-yl)isonicotinic acid]	100 to 1000 nM	100 to 1000 nM	1000 to 10000 nM
O=C(O)c1ccnc(-n2nccc2OCc2ccc(Cl)cc2CCc2ccc(F)cc2)c1 [Example 122, 2-[5-[[4-chloro-2-[2-(4-fluorophenyl)ethyl]phenyl]methoxy]pyrazol-1-yl]pyridine-4-carboxylic acid]	100 to 1000 nM	100 to 1000 nM	1000 to 10000 nM
Cc1ccc(COc2ccnn2-c2cc(C(=O)O)ccn2)c(C#N)c1 [Example 134, 2-[5-[(2-cyano-4-methylphenyl)methoxy]pyrazol-1-yl]pyridine-4-carboxylic acid]	< 100 nM	< 100 nM	100 to 1000 nM
CCc1ccc(COc2ccnn2-c2cc(C(=O)O)ccn2)c(F)c1 [Example 151, 2-[5-[(4-ethyl-2-fluorophenyl)methoxy]pyrazol-1-yl]pyridine-4-carboxylic acid]	100 to 1000 nM	< 100 nM	1000 to 10000 nM
O=C(O)c1ccnc(-n2nccc2OCc2ccc(Cl)cc2/C=C/c2ccc(F)cc2)c1 [Example 120, 2-[5-[[4-chloro-2-[(E)-2-(4-fluorophenyl)ethenyl]phenyl]methoxy]pyrazol-1-yl]pyridine-4-carboxylic acid]	100 to 1000 nM	100 to 1000 nM	1000 to 10000 nM
COc1cc(Br)ccc1COc1ccnn1-c1cc(C(=O)O)ccn1 [Example 143, 2-[5-[(4-bromo-2-methoxyphenyl)methoxy]pyrazol-1-yl]pyridine-4-carboxylic acid]	< 100 nM	< 100 nM	100 to 1000 nM
Cc1ccc(COc2ccnn2-c2cc(C(=O)O)ccn2)c(F)c1 [Example 131, 2-[5-[(2-fluoro-4-methylphenyl)methoxy]pyrazol-1-yl]pyridine-4-carboxylic acid]	< 100 nM	< 100 nM	100 to 1000 nM
Cc1c(-c2ccccc2)cnn1-c1cc(C(=O)O)ccn1 [Example 36, 2-(5-methyl-4-phenyl-1H-pyrazol-1-yl)isonicotinic acid]	100 to 1000 nM	100 to 1000 nM	> 10000 nM
CS(=O)(=O)c1ccc(-c2ccnn2-c2cc(C(=O)O)ccn2)cc1O [Example 28, 2-(5-(3-hydroxy-4-(methylsulfonyl)phenyl)-1H-pyrazol-1-yl)isonicotinic acid]	100 to 1000 nM	100 to 1000 nM	1000 to 10000 nM
CN(CCc1cnn(-c2cc(C(=O)NC#N)ccn2)c1)Cc1ccc(F)cc1 [Example 157, N-cyano-2-[4-[2-[(4-fluorophenyl)methyl-methylamino]ethyl]pyrazol-1-yl]pyridine-4-carboxamide]	< 100 nM	< 100 nM	< 100 nM
O=C(O)c1ccnc(-n2nccc2-c2ccc(F)c(F)c2)c1 [Example 15, 2-(5-(3,4-difluorophenyl)-1H-pyrazol-1-yl)isonicotinic acid]	100 to 1000 nM	100 to 1000 nM	100 to 1000 nM
CCC(C)Oc1cc(Cl)ccc1COc1ccnn1-c1cc(C(=O)O)ccn1 (stereo not drawn) [Example 114, 2-[5-[(2-butan-2-yloxy-4-chlorophenyl)methoxy]pyrazol-1-yl]pyridine-4-carboxylic acid]	100 to 1000 nM	100 to 1000 nM	1000 to 10000 nM
O=C(O)c1ccnc(-n2nccc2OCc2ccc(Cl)cc2F)c1 [Example 75, 2-{5-[(4-chloro-2-fluorobenzyl)oxy]-1H-pyrazol-1-yl}pyridine-4-carboxylic acid]	< 100 nM	< 100 nM	< 100 nM
O=C(O)c1ccnc(-n2nccc2OCc2ccc(F)cc2/C=C/c2ccc(F)cc2)c1 [Example 119, 2-[5-[[4-fluoro-2-[(E)-2-(4-fluorophenyl)ethenyl]phenyl]methoxy]pyrazol-1-yl]pyridine-4-carboxylic acid]	100 to 1000 nM	100 to 1000 nM	1000 to 10000 nM

Compound	IC50 [1]	IC50 [2]	IC50 [3]
O=C(O)c1ccnc(-n2ncc(CCO)c2OCc2ccc(F)cc2)c1 [Example 109, 2-[5-[(4-fluorophenyl)methoxy]-4-(2-hydroxyethyl)pyrazol-1-yl]pyridine-4-carboxylic acid]	< 100 nM	< 100 nM	1000 to 10000 nM
Cc1ccc(COc2ccnn2-c2cc(C(=O)O)ccn2)c(F)c1F [Example 94, 2-[5-[(2,3-difluoro-4-methylphenyl)methoxy]pyrazol-1-yl]pyridine-4-carboxylic acid]	< 100 nM	< 100 nM	< 100 nM
O=C(O)c1ccnc(-n2nccc2OC2CCc3cc(F)ccc32)c1 (stereo not drawn) [Example 146, 2-[5-[(5-fluoro-2,3-dihydro-1H-inden-1-yl)oxy]pyrazol-1-yl]pyridine-4-carboxylic acid]	100 to 1000 nM	100 to 1000 nM	100 to 1000 nM
O=C(O)c1ccnc(-n2nccc2-c2ccc(O)cc2)c1 [Example 18, 2-(5-(4-hydroxyphenyl)-1H-pyrazol-1-yl)isonicotinic acid]	100 to 1000 nM	100 to 1000 nM	100 to 1000 nM
Cc1cc(I)ccc1COc1ccnn1-c1cc(C(=O)O)ccn1 [Example 144, 2-[5-[(4-iodo-2-methylphenyl)methoxy]pyrazol-1-yl]pyridine-4-carboxylic acid]	< 100 nM	< 100 nM	100 to 1000 nM
O=C(O)c1ccnc(-n2nccc2-c2ccccc2)c1 [Example 26, 2-(5-phenyl-1H-pyrazol-1-yl)isonicotinic acid]	1000 to 10000 nM	1000 to 10000 nM	1000 to 10000 nM
2-{5-[(2-methyl-2H-indazol-5-yl)methoxy]-1H-pyrazol-1-yl}pyridine-4-carboxylic acid [Example 51]	< 100 nM	< 100 nM	100 to 1000 nM
CCCCc1ccnn1-c1cc(C(=O)O)ccn1 [Example 44, 2-(5-butyl-1H-pyrazol-1-yl)pyridine-4-carboxylic acid]	1000 to 10000 nM	1000 to 10000 nM	> 10000 nM
Cc1ccc(-c2cc(N)nn2-c2cc(C(=O)O)ccn2)cc1 [Example 48, 2-[3-amino-5-(4-methylphenyl)-1H-pyrazol-1-yl]pyridine-4-carboxylic acid]	< 100 nM	100 to 1000 nM	1000 to 10000 nM
O=C(O)c1ccnc(-n2nccc2OC2CCc3cc(Cl)ccc32)c1 (stereo not drawn) [Example 147, 2-[5-[(5-chloro-2,3-dihydro-1H-inden-1-yl)oxy]pyrazol-1-yl]pyridine-4-carboxylic acid]	100 to 1000 nM	100 to 1000 nM	1000 to 10000 nM
O=C(O)c1ccnc(-n2nccc2OCc2ccc(Cl)cc2)c1 [Example 53, 2-{5-[(4-chlorobenzyl)oxy]-1H-pyrazol-1-yl}pyridine-4-carboxylic acid]	< 100 nM	< 100 nM	< 100 nM
COCCOc1cc(Cl)ccc1COc1ccnn1-c1cc(C(=O)O)ccn1 [Example 116, 2-[5-[[4-chloro-2-(2-methoxyethoxy)phenyl]methoxy]pyrazol-1-yl]pyridine-4-carboxylic acid]	< 100 nM	< 100 nM	100 to 1000 nM
O=C(O)c1ccnc(-n2nccc2OCc2ccc(Cl)c(OCc3ccc(F)cc3)c2)c1 [Example 138, 2-[5-[[4-chloro-3-[(4-fluorophenyl)methoxy]phenyl]methoxy]pyrazol-1-yl]pyridine-4-carboxylic acid]	< 100 nM	< 100 nM	100 to 1000 nM
O=C(O)c1ccnc(-n2nccc2OCc2ccc(C3CC3)cc2F)c1 [Example 153, 2-[5-[(4-cyclopropyl-2-fluorophenyl)methoxy]pyrazol-1-yl]pyridine-4-carboxylic acid]	100 to 1000 nM	100 to 1000 nM	1000 to 10000 nM
CCc1cc(F)ccc1COc1ccnn1-c1cc(C(=O)O)ccn1 [Example 129, 2-[5-[(2-ethyl-4-fluorophenyl)methoxy]pyrazol-1-yl]pyridine-4-carboxylic acid]	< 100 nM	< 100 nM	100 to 1000 nM
CCc1cc(-c2ccc(C)cc2)n(-c2cc(C(=O)O)ccn2)n1 [Example 30, 2-(3-ethyl-5-p-tolyl-1H-pyrazol-1-yl)isonicotinic acid]	1000 to 10000 nM	100 to 1000 nM	1000 to 10000 nM
O=C(O)c1ccnc(-n2nccc2OCc2ccc(C3CC3)cc2)c1 [Example 77, 2-{5-[(4-cyclopropylbenzyl)oxy]-1H-pyrazol-1-yl}pyridine-4-carboxylic acid]	< 100 nM	< 100 nM	100 to 1000 nM
CC(Oc1ccnn1-c1cc(C(=O)O)ccn1)c1ccc(F)cc1 (stereo not drawn) [Example 82, 2-[5-[1-(4-fluorophenyl)ethoxy]pyrazol-1-yl]pyridine-4-carboxylic acid]	< 100 nM	< 100 nM	100 to 1000 nM
